Experimental data from patent publication US20060088886A1, “Topiramate analogs” (priority 2004, published 2006).

What was measured:
[1] = system: anti-topiramate antibodies prepared with immunogen (17); experiment: ELISA binding inhibition study (avidity), free topiramate vs coated antigens; parameters: species or system Rabbit; conditions: for Abs Antigen 16 / Abs Antigen 19 / Abs Antigen 20: 405 nm
Protocol: ELISA plates for use in an ELISA assay are prepared in order to study the polyclonal antibody prepared as described in Example 21. As such, various topiramate antigens (16), (19), and (20) are coated on different ELISA plates before being subjected to the anti-topiramate antibody and competing free topiramate. More particularly, the topiramate antigens are diluted in coating buffer, and then added to the wells of ELISA plate. After the ELISA plate is inculcated for 60 min at 37° C., the solvent in the coating buffer is decanted and a blocking buffer is added to the plate. The plate is incubated again for 60 min at 37° C., and the solvent in the blocking buffer is decanted from the plate. The ELISA plate is then stored with the blocking agent in the wells at 2-8° C. for up to 1 week. The avidity of the anti-topiramate antibodies prepared with immunogen (17) for topirainate analogs are determined by a binding inhibition study. As such, samples are prepared in 1 mL of PBS at pH 7.4 with 0.1% BSA. A composition having 30% Bmax titer or 50% Bmax titer is used to divide the obtained titer value into approximately half the titer value. Using 30% Bmax, an antibody titer of 1:10000 is diluted to 1:5000 during the sample preparation stage. About 50 μL of topiramate at different concentrations or calibrator values, (0, 2, 4, 8, 16, 32 μg/ml) are then applied to a plate as prepared in accordance with Example 22. About 50 μL of the diluted antibody is dispensed into the plate, and the compositions in the plate are mixed for 1 min on a horizontal plate shaker. The plate is characterized by a first row not containing topiramate or anti-topiramate antibody, wherein the first row is used as a negative control. A second row not containing topiramate is used as the positive control. The plate is incubated for 60 min, and washed three times with 250 μL of PBS at pH 7.4 with 0.05% tween. About 125 μL of a diluted second antibody conjugate such as antigens (16), (19), or (20), in PBS at pH 7.4 is added to each well of the plate. Titer is determined experimentally by the plate being incubated for 60 min at 37° C. and washed 3 times with 250 μL PBS, pH 7.4 with 0.05% tween. Subsequently, about 125 μL of ABTS substrate is added to each well of the plate and incubated for 20 min.

[2] = system: sheep polyclonal antibodies that bind with topiramate prepared from immunogen (18); experiment: QMS homogeneous particle-enhanced immunoturbidimetric assay; type: binding; conditions: Polyclonal antibody R1, Topiramate antigen (19) coated Latex
Protocol: An immunoturbidimetric or QMS® assay, which is a homogeneous particle-enhanced immunoturbidimetric experiment, is performed to test the polyclonal antibodies prepared as in Example 21. […] Additionally, suitable specimens can be prepared from serum and plasma. Serum can be collected by standard venipuncture techniques and placed into glass or plastic tubes with or without gel barriers. […] In the instance the specimen is centrifuged before a complete clot forms, the presence of fibrin may cause erroneous results. Accordingly, the serum can be separated from red blood cells as soon after collection as possible. Plasma can also be used with acceptable anticoagulants, such as lithium heparin, sodium heparin, potassium EDTA, and a heparin gel plasma separator. The plasma can be collected by standard venipuncture techniques and placed into glass or plastic tubes. Also, centrifugation is used to ensure the adequate removal of platelets. The plasma can be separated from red blood cells as soon as possible after collection. The specimens that contain particulate matter or red blood cells may give inconsistent results, but can be centrifuged before testing at a recommended 8,000 to 10,000 RCF×10 minutes to produce a suitable specimen. The assay procedure is initiated by diluting the specimen because the specimens with topiramate can be used to generate results that exceed the highest calibrator value. As such, the specimens may be diluted manually or by using an automated onboard dilution protocol. The assay is based on competition for topiramate-specific antibody binding sites between drug in the sample and drug coated onto a microparticle of topiramate-coated microparticle reagent is rapidly agglutinated in the presence of the anti-topiramate antibody reagent and in the absence of any competing drug in the sample. The rate of absorbance change is measured photometrically, and is directly proportional to the rate of agglutination of the particles. […] A concentration-dependent classic agglutination inhibition curve can be obtained, with maximum rate of agglutination at the lowest topiramate concentration (at zero μg/ml) and the lowest agglutination rate at the highest topiramate concentration (32 μg/ml). The QMS® topiramate assay is initiated after the being calibrated using a full calibration (6-point) procedure. The QMS® is performed as directed in operation manuals in accordance with the average skill of one in the art.

[3] = cited from earlier work
[4] = Rabbit No. 5481, topiramate 2 μg/ml
[5] = Rabbit No. 5481, topiramate 4 μg/ml
[6] = Rabbit No. 5481, topiramate 8 μg/ml
[7] = Rabbit No. 5481, topiramate 16 μg/ml
[8] = Rabbit No. 5481, topiramate 32 μg/ml
[9] = Rabbit No. 5492, topiramate 2 μg/ml
[10] = Rabbit No. 5492, topiramate 4 μg/ml
[11] = Rabbit No. 5492, topiramate 8 μg/ml
[12] = Rabbit No. 5492, topiramate 16 μg/ml
[13] = Rabbit No. 5492, topiramate 32 μg/ml
[14] = dose escalation add-on studies, morning trough serum

B/Bo Antigen 16 [1, 4]: 0.38
B/Bo Antigen 19 [1, 4]: 0.40
B/Bo Antigen 20 [1, 4]: 0.53
Abs Antigen 16 [1, 4]: 0.29
Abs Antigen 19 [1, 4]: 0.33
Abs Antigen 20 [1, 4]: 0.32
B/Bo Antigen 16 [1, 5]: 0.34
B/Bo Antigen 19 [1, 5]: 0.30
B/Bo Antigen 20 [1, 5]: 0.50
Abs Antigen 16 [1, 5]: 0.26
Abs Antigen 19 [1, 5]: 0.25
Abs Antigen 20 [1, 5]: 0.30
B/Bo Antigen 16 [1, 6]: 0.24
B/Bo Antigen 19 [1, 6]: 0.24
B/Bo Antigen 20 [1, 6]: 0.42
Abs Antigen 16 [1, 6]: 0.18
Abs Antigen 19 [1, 6]: 0.20
Abs Antigen 20 [1, 6]: 0.25
B/Bo Antigen 16 [1, 7]: 0.20
B/Bo Antigen 19 [1, 7]: 0.22
B/Bo Antigen 20 [1, 7]: 0.37
Abs Antigen 16 [1, 7]: 0.15
Abs Antigen 19 [1, 7]: 0.18
Abs Antigen 20 [1, 7]: 0.22
B/Bo Antigen 16 [1, 8]: 0.14
B/Bo Antigen 19 [1, 8]: 0.18
B/Bo Antigen 20 [1, 8]: 0.30
Abs Antigen 16 [1, 8]: 0.11
Abs Antigen 19 [1, 8]: 0.15
Abs Antigen 20 [1, 8]: 0.18
B/Bo Antigen 16 [1, 9]: 0.56
B/Bo Antigen 19 [1, 9]: 0.38
B/Bo Antigen 20 [1, 9]: 0.64
Abs Antigen 16 [1, 9]: 0.25
Abs Antigen 19 [1, 9]: 0.31
Abs Antigen 20 [1, 9]: 0.45
B/Bo Antigen 16 [1, 10]: 0.44
B/Bo Antigen 19 [1, 10]: 0.28
B/Bo Antigen 20 [1, 10]: 0.59
Abs Antigen 16 [1, 10]: 0.20
Abs Antigen 19 [1, 10]: 0.23
Abs Antigen 20 [1, 10]: 0.41
B/Bo Antigen 16 [1, 11]: 0.33
B/Bo Antigen 19 [1, 11]: 0.23
B/Bo Antigen 20 [1, 11]: 0.54
Abs Antigen 16 [1, 11]: 0.15
Abs Antigen 19 [1, 11]: 0.19
Abs Antigen 20 [1, 11]: 0.38
B/Bo Antigen 16 [1, 12]: 0.29
B/Bo Antigen 19 [1, 12]: 0.20
B/Bo Antigen 20 [1, 12]: 0.54
Abs Antigen 16 [1, 12]: 0.13
Abs Antigen 19 [1, 12]: 0.17
Abs Antigen 20 [1, 12]: 0.38
B/Bo Antigen 16 [1, 13]: 0.02
B/Bo Antigen 19 [1, 13]: 0.18
B/Bo Antigen 20 [1, 13]: 0.40
Abs Antigen 16 [1, 13]: 0.01
Abs Antigen 19 [1, 13]: 0.15
Abs Antigen 20 [1, 13]: 0.28
Structure (SMILES): CC1(C)O[C@@H]2[C@@H](CO[C@@]3(COS(N)(=O)=O)OC(C)(C)O[C@@H]23)O1 [Topiramate, 2,3:4,5-di-O-isopropylidene-beta-D-fructopyranose sulfamate]
Rate (Delta Absorbance) ([2]; topiramate 2 μg/ml sample): 159
Rate (Delta Absorbance) ([2]; topiramate 4 μg/ml sample): 122
Rate (Delta Absorbance) ([2]; topiramate 8 μg/ml sample): 60
Rate (Delta Absorbance) ([2]; topiramate 16 μg/ml sample): 16
Rate (Delta Absorbance) ([2]; topiramate 32 μg/ml sample): 4
serum concentration at which a reduction in seizure control was seen [3, 14]: greater than 75 μmol/L
serum concentration with significant increase in side effects [3, 14]: > 60 µM
systemic topiramate concentrations ([3]; patients receiving higher doses, up to 2000 mg): ≤ 80 µmol/L
